Laboratory results as given in US11542259B2, “Compounds for the treatment of kinase-dependent disorders” (Exelixis, Inc., priority 2018, dated 2023).

Key:
Type in all cases: cell-based
AXL = AXL (Homo sapiens (Human), UniProt P30530); experiment: AXL autophosphorylation ELISA in A-172 cells; settings: cellular, Gas6 stimulated
How it was run: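 Serum-starved (24 h) A-172 glioblastoma cells pretreated 1 h with compounds (8-point curve, 0.3% DMSO), then stimulated 15 min with 1 μg/mL Gas6. Lysate phospho-AXL measured by sandwich ELISA against a phospho-AXL standard; IC50 from 4-parameter logistic fit between DMSO and reference-inhibitor controls.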

Mer = Mer (Homo sapiens (Human), UniProt Q12866); experiment: Mer autophosphorylation ELISA in transient transfected 293A cells; settings: cellular, MERTK transfected 293A cells
Sequence of Mer (Q12866 21-999): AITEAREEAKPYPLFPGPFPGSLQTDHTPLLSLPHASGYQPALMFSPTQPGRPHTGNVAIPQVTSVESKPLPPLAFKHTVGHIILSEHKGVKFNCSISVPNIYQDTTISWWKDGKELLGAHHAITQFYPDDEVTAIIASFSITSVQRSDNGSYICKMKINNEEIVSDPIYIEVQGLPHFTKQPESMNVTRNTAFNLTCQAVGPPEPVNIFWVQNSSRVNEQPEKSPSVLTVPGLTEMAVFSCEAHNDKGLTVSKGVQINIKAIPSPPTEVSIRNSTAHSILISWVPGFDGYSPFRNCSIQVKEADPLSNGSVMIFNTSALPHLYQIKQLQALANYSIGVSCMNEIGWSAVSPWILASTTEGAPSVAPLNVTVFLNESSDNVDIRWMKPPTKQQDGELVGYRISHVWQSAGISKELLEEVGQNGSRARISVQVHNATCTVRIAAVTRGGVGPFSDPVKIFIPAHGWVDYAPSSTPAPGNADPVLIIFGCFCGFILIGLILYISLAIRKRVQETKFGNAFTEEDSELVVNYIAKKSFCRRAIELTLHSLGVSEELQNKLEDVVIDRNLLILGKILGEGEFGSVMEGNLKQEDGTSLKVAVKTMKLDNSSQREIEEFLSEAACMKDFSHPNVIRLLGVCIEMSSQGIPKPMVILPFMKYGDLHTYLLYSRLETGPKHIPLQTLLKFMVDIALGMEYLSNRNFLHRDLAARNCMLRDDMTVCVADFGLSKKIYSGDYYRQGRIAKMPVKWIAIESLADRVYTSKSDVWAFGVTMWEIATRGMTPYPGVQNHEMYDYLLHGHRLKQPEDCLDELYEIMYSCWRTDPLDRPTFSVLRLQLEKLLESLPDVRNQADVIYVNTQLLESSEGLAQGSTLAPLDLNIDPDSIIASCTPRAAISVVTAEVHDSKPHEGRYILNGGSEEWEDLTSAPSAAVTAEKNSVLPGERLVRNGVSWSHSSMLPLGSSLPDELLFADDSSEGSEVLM
Procedure: 293A cells (Thermo Fisher #R70507) were seeded at 1.5×10^6 cells/well onto 100 mm dish (Greiner #664169), in DMEM (Thermo Fisher #11995-040) containing 10% FBS (Thermo Fisher #26140-079), 1% MEM NEAA (Thermo Fisher #11140-050), 1% GlutaMax (Thermo Fisher #35050-061), and 1% Penicillin Streptomycin (Thermo Fisher #15140-122). 293A cells were incubated at 37° C., 5% CO2 for 24 h and then transfected with 6 μg MERTK DNA (Genecopoeia #EX-Z8208-M02) using TransIT LT1 transfection reagent (Mirus-Bio #MIR2305). After 24 h incubation, the transfected 293A cells were seeded at 1×10^5 cells/well onto 96-well plates (Corning #3904) in DMEM growth medium overnight. Test compounds were serially diluted to produce an 8-point dose curve in fresh serum-free medium to a final concentration of 0.3% DMSO (vehicle) and added to the cells and incubated for 1 h. Cells were then immediately lysed with 150 μL of cold 1× lysis buffer [20 mM Tris, 137 mM sodium chloride, 2 mM EDTA, 10% glycerol, 1% NP-40 alternative, 1 mM activated sodium orthovanadate, 1 mM PefaBloc SC (Sigma-Aldrich #11429868001), protease/phosphatase inhibitor tablet (Thermo Fisher #A32959)]. Lysates were clarified by centrifugation and 50 μL/well added into the human phospho-Mer DuoSet IC ELISA (R&D Systems #DYC2579-2). Assay was performed according to manufacturer's instructions and sample phospho-Mer concentrations were extrapolated using human phospho-Mer control (R&D Systems #841793) as a standard. Positive control wells (100% activity) contained DMSO-treated cell lysates. Negative control wells (0% activity) contained reference inhibitor-treated cell lysates. IC50 values were calculated by nonlinear regression analysis using a 4-parameter logistic curve fit in ActivityBase XE (IDBS).

Met = Met (Homo sapiens (Human), UniProt P08581); experiment: Met autophosphorylation ELISA in PC-3 cells; settings: cellular, HGF stimulated, read-out: c-Met IC50
Sequence of Met (P08581 25-1390): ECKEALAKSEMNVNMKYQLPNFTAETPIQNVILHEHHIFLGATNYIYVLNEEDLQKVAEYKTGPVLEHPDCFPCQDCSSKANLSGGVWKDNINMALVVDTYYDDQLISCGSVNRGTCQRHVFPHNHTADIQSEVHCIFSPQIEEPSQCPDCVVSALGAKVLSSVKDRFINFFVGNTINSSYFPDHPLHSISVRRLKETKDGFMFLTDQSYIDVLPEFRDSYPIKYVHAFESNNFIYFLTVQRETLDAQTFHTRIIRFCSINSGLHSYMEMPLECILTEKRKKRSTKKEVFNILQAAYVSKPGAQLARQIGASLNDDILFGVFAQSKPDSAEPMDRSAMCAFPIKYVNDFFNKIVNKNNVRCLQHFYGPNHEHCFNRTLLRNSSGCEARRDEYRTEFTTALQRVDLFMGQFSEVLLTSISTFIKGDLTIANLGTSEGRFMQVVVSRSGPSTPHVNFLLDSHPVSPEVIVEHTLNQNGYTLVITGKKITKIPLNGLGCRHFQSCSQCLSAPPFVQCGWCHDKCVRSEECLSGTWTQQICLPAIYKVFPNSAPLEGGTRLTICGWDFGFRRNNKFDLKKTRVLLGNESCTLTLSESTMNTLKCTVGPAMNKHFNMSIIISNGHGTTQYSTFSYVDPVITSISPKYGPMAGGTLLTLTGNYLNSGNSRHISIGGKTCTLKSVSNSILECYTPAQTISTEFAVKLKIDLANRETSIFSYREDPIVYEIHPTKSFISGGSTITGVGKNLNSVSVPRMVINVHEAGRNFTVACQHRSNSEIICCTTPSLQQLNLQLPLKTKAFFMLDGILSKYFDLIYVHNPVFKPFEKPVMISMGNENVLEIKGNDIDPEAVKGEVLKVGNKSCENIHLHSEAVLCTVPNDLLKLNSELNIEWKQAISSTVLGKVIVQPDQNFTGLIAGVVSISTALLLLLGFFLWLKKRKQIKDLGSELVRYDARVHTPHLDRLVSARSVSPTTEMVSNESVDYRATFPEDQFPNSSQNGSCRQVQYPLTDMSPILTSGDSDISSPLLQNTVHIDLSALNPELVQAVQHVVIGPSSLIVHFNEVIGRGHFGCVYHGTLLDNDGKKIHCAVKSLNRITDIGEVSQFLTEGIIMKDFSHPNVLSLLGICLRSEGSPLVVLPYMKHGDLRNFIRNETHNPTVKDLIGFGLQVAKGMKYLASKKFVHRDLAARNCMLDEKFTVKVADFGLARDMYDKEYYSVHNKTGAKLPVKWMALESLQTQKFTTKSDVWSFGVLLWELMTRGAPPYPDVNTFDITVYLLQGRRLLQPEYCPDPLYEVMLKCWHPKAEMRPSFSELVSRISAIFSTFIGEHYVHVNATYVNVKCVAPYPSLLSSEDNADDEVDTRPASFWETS
How it was run: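 Phospho-Met (panTyr) sandwich ELISA on lysates of PC-3 cells given 100 ng/mL HGF for 10 min after 1 h compound exposure (8-point curve, 0.3% DMSO) following 3 h serum starvation. Normalised to HGF-stimulated DMSO and reference-inhibitor wells; 4-parameter logistic IC50.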

KDR = KDR (Homo sapiens (Human), UniProt P35968); experiment: KDR autophosphorylation ELISA in HUVEC cells; settings: cellular, VEGF165 stimulated
Sequence of KDR (P35968 20-1356): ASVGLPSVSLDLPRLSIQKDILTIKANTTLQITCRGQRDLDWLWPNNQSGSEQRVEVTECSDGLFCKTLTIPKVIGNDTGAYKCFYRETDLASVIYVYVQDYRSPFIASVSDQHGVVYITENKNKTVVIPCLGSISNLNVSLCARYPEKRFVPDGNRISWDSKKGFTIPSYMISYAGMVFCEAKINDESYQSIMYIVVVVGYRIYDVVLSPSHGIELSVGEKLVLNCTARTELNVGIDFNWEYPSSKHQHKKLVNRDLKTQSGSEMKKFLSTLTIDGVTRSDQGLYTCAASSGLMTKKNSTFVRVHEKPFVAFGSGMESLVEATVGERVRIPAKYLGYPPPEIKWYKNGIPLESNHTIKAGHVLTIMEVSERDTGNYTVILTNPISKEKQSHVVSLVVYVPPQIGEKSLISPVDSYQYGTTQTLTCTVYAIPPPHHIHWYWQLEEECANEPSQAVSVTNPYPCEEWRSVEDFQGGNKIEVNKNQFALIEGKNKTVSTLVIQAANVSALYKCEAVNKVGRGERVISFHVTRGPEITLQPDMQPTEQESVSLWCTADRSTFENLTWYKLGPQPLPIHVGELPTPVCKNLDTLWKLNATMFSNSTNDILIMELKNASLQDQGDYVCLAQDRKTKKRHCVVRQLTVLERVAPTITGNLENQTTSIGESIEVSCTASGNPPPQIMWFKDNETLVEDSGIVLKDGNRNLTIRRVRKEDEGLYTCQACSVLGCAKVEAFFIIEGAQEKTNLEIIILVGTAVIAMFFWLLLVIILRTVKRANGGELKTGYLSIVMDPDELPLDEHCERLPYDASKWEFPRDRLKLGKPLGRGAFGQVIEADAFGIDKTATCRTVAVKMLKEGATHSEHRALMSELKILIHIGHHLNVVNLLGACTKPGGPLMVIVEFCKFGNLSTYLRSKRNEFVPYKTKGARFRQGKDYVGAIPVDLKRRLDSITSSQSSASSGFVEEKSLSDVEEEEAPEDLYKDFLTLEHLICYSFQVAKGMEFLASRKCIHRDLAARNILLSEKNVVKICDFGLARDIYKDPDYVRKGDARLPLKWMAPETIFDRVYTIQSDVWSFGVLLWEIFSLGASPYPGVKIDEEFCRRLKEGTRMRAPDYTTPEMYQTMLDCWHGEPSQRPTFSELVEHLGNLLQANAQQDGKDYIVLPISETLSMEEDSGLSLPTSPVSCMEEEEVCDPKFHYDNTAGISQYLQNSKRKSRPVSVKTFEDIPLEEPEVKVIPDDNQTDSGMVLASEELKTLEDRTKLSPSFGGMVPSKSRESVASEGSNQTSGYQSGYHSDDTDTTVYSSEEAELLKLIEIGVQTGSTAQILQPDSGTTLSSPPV
How it was run: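 Read-out: phospho-KDR ELISA on cell lysates, quantified against a phospho-KDR standard, normalised to VEGF-stimulated DMSO (100%) and unstimulated (0%) wells, IC50 by 4-parameter fit. Cells were 24 h serum-starved HUVEC given compound for 1 h, then 100 ng/mL VEGF165 for 5 min.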

Sequence of AXL (P30530 26-894): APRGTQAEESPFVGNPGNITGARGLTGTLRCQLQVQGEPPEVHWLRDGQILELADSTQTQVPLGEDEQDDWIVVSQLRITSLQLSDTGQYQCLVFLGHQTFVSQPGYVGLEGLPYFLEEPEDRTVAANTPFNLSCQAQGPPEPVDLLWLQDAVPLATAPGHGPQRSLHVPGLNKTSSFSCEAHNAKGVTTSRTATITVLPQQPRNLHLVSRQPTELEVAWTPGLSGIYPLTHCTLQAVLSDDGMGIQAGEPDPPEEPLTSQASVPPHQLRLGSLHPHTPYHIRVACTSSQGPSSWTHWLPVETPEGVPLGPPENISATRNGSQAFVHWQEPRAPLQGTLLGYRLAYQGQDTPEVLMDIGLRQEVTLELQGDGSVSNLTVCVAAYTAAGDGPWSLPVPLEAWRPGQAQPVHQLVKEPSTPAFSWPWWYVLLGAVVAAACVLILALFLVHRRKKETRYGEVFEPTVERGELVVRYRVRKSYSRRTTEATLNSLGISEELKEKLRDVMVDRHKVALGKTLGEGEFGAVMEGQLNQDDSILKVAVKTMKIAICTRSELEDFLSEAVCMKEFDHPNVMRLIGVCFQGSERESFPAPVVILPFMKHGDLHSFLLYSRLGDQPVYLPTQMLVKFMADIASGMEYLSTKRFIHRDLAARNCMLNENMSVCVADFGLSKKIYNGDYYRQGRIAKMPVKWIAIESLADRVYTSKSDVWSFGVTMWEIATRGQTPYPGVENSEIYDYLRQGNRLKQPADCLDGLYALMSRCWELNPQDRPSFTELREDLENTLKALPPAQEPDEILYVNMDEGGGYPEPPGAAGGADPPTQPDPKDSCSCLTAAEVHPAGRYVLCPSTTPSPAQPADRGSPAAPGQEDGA

IC50 (AXL) | IC50 (Mer) | IC50 (Met) | IC50 (KDR) | SMILES
≤ 10 nM | 10 to 100 nM | 10 to 100 nM | ≤ 10 nM | CNC(=O)c1cc2c(Oc3ccc(NC(=O)C4(C(=O)Nc5ccc(F)cc5)CC4)cc3)ccnc2cc1OCC(C)O (stereo not shown) [Compound 116, 1-N′-(4-Fluorophenyl)-1-N-[4-[7-(2-hydroxypropoxy)-6-(methylcarbamoyl)quinolin-4-yl]oxyphenyl]cyclopropane-1,1-dicarboxamide]
10 to 100 nM | 10 to 100 nM | 10 to 100 nM | 10 to 100 nM | CNC(=O)c1cc2c(Oc3ccc(NC(=O)C4(C(=O)Nc5ccc(F)cc5Cl)CC4)cc3F)ccnc2cc1OC [Compound 264, 1-N′-(2-Chloro-4-fluorophenyl)-1-N-[3-fluoro-4-[7-methoxy-6-(methylcarbamoyl)quinolin-4-yl]oxyphenyl]cyclopropane-1,1-dicarboxamide]
≤ 10 nM | 10 to 100 nM | 10 to 100 nM | 10 to 100 nM | CNC(=O)c1cc2c(Oc3ccc(NC(=O)C4(C(=O)Nc5ccc(F)cc5C)CC4)cc3F)ccnc2cc1OC [Compound 265, 1-N-[3-Fluoro-4-[7-methoxy-6-(methylcarbamoyl)quinolin-4-yl]oxyphenyl]-1-N′-(4-fluoro-2-methylphenyl)cyclopropane-1,1-dicarboxamide]
≤ 10 nM | 10 to 100 nM | 10 to 100 nM | ≤ 10 nM | CNC(=O)c1cc2c(Oc3ccc(NC(=O)C4(C(=O)Nc5ccc(F)cc5OC)CC4)cc3F)ccnc2cc1OC [Compound 268, 1-N-[3-Fluoro-4-[7-methoxy-6-(methylcarbamoyl)quinolin-4-yl]oxyphenyl]-1-N′-(4-fluoro-2-methoxyphenyl)cyclopropane-1,1-dicarboxamide]
10 to 100 nM | 10 to 100 nM | 100 to 300 nM | 10 to 100 nM | CNC(=O)c1cc2c(Oc3ccc(NC(=O)C4(C(=O)Nc5ccc(F)cc5OC(C)C)CC4)cc3F)ccnc2cc1OC [Compound 269, 1-N-[3-Fluoro-4-[7-methoxy-6-(methylcarbamoyl)quinolin-4-yl]oxyphenyl]-1-N′-(4-fluoro-2-propan-2-yloxyphenyl)cyclopropane-1,1-dicarboxamide]
10 to 100 nM | 10 to 100 nM | 10 to 100 nM | 10 to 100 nM | CNC(=O)c1cc2c(Oc3ccc(NC(=O)C4(C(=O)Nc5ccc(F)cc5C5CC5)CC4)cc3F)ccnc2cc1OC [Compound 270, 1-N′-(2-Cyclopropyl-4-fluorophenyl)-1-N-[3-fluoro-4-[7-methoxy-6-(methylcarbamoyl)quinolin-4-yl]oxyphenyl]cyclopropane-1,1-dicarboxamide]
10 to 100 nM | ≤ 10 nM | 10 to 100 nM | ≤ 10 nM | CNC(=O)c1cc2c(Oc3ccc(NC(=O)C4(C(=O)Nc5ccc(Cl)cc5)CC4)cc3F)ccnc2cc1OC [Compound 274, 1-N-(4-Chlorophenyl)-1-N′-[3-fluoro-4-[7-methoxy-6-(methylcarbamoyl)quinolin-4-yl]oxyphenyl]cyclopropane-1,1-dicarboxamide]

The next lines start with the compound.

SMILES | IC50 (AXL) | IC50 (Mer) | IC50 (Met) | IC50 (KDR)
NC(=O)c1cc2c(Oc3ccc(NC(=O)C4(C(=O)Nc5ccc(F)cc5)CC4)cc3)ccnc2cc1NCCCN1CCOCC1 [Compound 71, 1-N-[4-[6-Carbamoyl-7-(3-morpholin-4-ylpropylamino)quinolin-4-yl]oxyphenyl]-1-N′-(4-fluorophenyl)cyclopropane-1,1-dicarboxamide] | 10 to 100 nM | 10 to 100 nM | 10 to 100 nM | 10 to 100 nM
CCC1NC(=O)c2cc3c(Oc4ccc(NC(=O)C5(C(=O)Nc6ccc(F)cc6)CC5)cc4)ccnc3cc2O1 (stereo not shown) [Compound 96, 1-N-[4-[(2-Ethyl-4-oxo-2,3-dihydropyrido[3,2-g][1,3]benzoxazin-6-yl)oxy]phenyl]-1-N′-(4-fluorophenyl)cyclopropane-1,1-dicarboxamide] | 10 to 100 nM | 10 to 100 nM | 100 to 300 nM | 100 to 300 nM
CNC(=O)c1cc2c(Oc3ccc(NC(=O)C4(C(=O)Nc5ccc(F)cc5)CC4)cc3)ccnc2cc1OCCO [Compound 110, 1-N′-(4-Fluorophenyl)-1-N-[4-[7-(2-hydroxyethoxy)-6-(methylcarbamoyl)quinolin-4-yl]oxyphenyl]cyclopropane-1,1-dicarboxamide] | ≤ 10 nM | 10 to 100 nM | ≤ 10 nM | ≤ 10 nM
CC(O)COc1cc2nccc(Oc3ccc(NC(=O)C4(C(=O)Nc5ccc(F)cc5)CC4)cc3)c2cc1C(N)=O (stereo not shown) [Compound 115, 1-N-[4-[6-Carbamoyl-7-(2-hydroxypropoxy)quinolin-4-yl]oxyphenyl]-1-N′-(4-fluorophenyl)cyclopropane-1,1-dicarboxamide] | ≤ 10 nM | 10 to 100 nM | 10 to 100 nM | ≤ 10 nM
CC(O)COc1cc2nccc(Oc3ccc(NC(=O)C4(C(=O)Nc5ccc(F)cc5)CC4)cc3)c2cc1-c1ncco1 (stereo not shown) [Compound 125, 1-N′-(4-Fluorophenyl)-1-N-[4-[7-(2-hydroxypropoxy)-6-(1,3-oxazol-2-yl)quinolin-4-yl]oxyphenyl]cyclopropane-1,1-dicarboxamide] | ≤ 10 nM | ≤ 10 nM | 10 to 100 nM | 10 to 100 nM
O=C(NOC[C@H](O)CO)c1ccc2c(Oc3ccc(NC(=O)C4(C(=O)Nc5ccc(F)cc5)CC4)cc3)ccnc2c1 [Compound 169, 1-N-[4-[7-[[(2R)-2,3-Dihydroxypropoxy]carbamoyl]quinolin-4-yl]oxyphenyl]-1-N′-(4-fluorophenyl)cyclopropane-1,1-dicarboxamide] | 100 to 300 nM | > 300 nM | 100 to 300 nM | 100 to 300 nM
COc1cc2nccc(Oc3ccc(NC(=O)C4(C(=O)Nc5ccc(F)cc5)CC4)cc3)c2cc1-c1cnco1 [Compound 192, 1-N′-(4-Fluorophenyl)-1-N-[4-[7-methoxy-6-(1,3-oxazol-5-yl)quinolin-4-yl]oxyphenyl]cyclopropane-1,1-dicarboxamide] | ≤ 10 nM | ≤ 10 nM | 10 to 100 nM | ≤ 10 nM
CNS(=O)(=O)c1cc2c(Oc3ccc(NC(=O)C4(C(=O)Nc5ccc(F)cc5)CC4)cc3)ccnc2cc1OC [Compound 207, 1-N′-(4-Fluorophenyl)-1-N-[4-[7-methoxy-6-(methylsulfamoyl)quinolin-4-yl]oxyphenyl]cyclopropane-1,1-dicarboxamide] | 10 to 100 nM | 10 to 100 nM | 10 to 100 nM | 10 to 100 nM
CCNS(=O)(=O)c1cc2c(Oc3ccc(NC(=O)C4(C(=O)Nc5ccc(F)cc5)CC4)cc3)ccnc2cc1OC [Compound 208, 1-N-[4-[6-(Ethylsulfamoyl)-7-methoxyquinolin-4-yl]oxyphenyl]-1-N′-(4-fluorophenyl)cyclopropane-1,1-dicarboxamide] | 10 to 100 nM | 10 to 100 nM | 10 to 100 nM | 10 to 100 nM
CONC(=O)c1ccc2c(Oc3ccc(NC(=O)C4(C(=O)Nc5ccc(F)cc5)CC4)cc3)ccnc2c1 [Compound 213, 1-N′-(4-Fluorophenyl)-1-N-[4-[7-(methoxycarbamoyl)quinolin-4-yl]oxyphenyl]cyclopropane-1,1-dicarboxamide] | 10 to 100 nM | 10 to 100 nM | 10 to 100 nM | 100 to 300 nM
CCNC(=O)c1ccc2c(Oc3ccc(NC(=O)C4(C(=O)Nc5ccc(F)cc5)CC4)cc3)ccnc2c1 [Compound 214, 1-N-[4-[7-(Ethylcarbamoyl)quinolin-4-yl]oxyphenyl]-1-N′-(4-fluorophenyl)cyclopropane-1,1-dicarboxamide] | 10 to 100 nM | 10 to 100 nM | 10 to 100 nM | 10 to 100 nM
CO/N=C/c1ccc2c(Oc3ccc(NC(=O)C4(C(=O)Nc5ccc(F)cc5)CC4)cc3)ccnc2c1 [Compound 278, 1-N′-(4-Fluorophenyl)-1-N-[4-[7-[(E)-methoxyiminomethyl]quinolin-4-yl]oxyphenyl]cyclopropane-1,1-dicarboxamide] | 100 to 300 nM | 100 to 300 nM | 100 to 300 nM | 100 to 300 nM
